Measurements published in US20260146035A1, “FUSED BICYCLIC COMPOUNDS AND THEIR USE AS MER AND AXL INHIBITORS” (DONG-A ST CO., LTD., priority 2022, published 2026).

Assays:
human TYRO3 (455-end) = molecular target: T1, human TYRO3 (455-end) (Homo sapiens, UniProt Q06418); assay: HTRF kinase activity biochemical assay, TYRO3; conditions: 10 μM ATP, 30 minutes pre-incubation; read-out: HTRF TYRO IC50
T1 construct: TYRO3 (455-end); purchased SignalChem, Canada
T1 sequence (Q06418 455-890 limits assumed): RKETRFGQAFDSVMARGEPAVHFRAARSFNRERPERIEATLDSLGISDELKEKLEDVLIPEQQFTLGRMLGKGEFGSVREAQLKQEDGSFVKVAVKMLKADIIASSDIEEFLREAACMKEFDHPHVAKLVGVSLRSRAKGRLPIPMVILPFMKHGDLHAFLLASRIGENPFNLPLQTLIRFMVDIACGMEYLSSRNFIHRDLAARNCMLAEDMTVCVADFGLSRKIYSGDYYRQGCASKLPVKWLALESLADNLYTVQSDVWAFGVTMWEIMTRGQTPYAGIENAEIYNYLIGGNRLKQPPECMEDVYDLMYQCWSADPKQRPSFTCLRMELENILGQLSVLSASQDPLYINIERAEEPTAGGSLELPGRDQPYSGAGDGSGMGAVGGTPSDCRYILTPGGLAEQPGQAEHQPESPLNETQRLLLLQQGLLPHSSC
Description: (§1) For the SAR (structure-activity relationship) and compound screening, HTRF (Homogeneous Time Resolved Fluorescence) kinase activity assay was employed for all MER, AXL and TYRO3 kinases using Cisbio HTRF® KinEASE™-TK kit (Cisbio, USA). The kit included biotin-labeled TK substrate, streptavidin-XL665, Eu3+-cryptate-labeled TK antibody and HTRF® Detection buffer. There are two main steps in the kinase assay: kinase reaction and detection of phosphorylated substrate. The reaction was carried out in white low volume 384-well plate (Corning, USA) with 25 nL compound in dimethyl sulfoxide in each well. […] After 1 hour incubation at room temperature, the fluorescence intensity was measured with Envision[…] plate reader (PerkinElmer, USA). Upon excitation at 340 nm by UV, the energy from Eu3+ donor of the antibody is transferred to the FRET acceptor XL665, and […] emits light at 665 nm.

human AXL (473-end) = molecular target: T2, human AXL (473-end) (Homo sapiens, UniProt P30530); assay: HTRF kinase activity biochemical assay, AXL; conditions: 10 μM ATP, 30 minutes pre-incubation
T2 construct: human AXL (473-end); purchased SignalChem, Canada
T2 sequence (P30530 473-894 limits assumed): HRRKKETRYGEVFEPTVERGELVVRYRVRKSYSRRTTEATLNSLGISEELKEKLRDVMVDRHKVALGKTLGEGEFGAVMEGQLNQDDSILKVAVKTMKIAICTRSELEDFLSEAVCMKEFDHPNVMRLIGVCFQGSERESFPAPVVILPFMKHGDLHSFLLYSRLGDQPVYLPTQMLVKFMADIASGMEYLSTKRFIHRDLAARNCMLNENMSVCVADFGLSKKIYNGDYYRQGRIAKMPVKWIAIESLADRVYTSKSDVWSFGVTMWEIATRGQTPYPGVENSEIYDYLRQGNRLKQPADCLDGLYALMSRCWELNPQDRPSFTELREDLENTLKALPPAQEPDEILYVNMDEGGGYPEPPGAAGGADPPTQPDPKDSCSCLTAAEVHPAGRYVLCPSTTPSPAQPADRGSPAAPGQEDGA
Description: as §1

human MER (528-end) = molecular target: T3, human MER (528-end) (Homo sapiens, UniProt Q12866); assay: HTRF kinase activity biochemical assay, MER; conditions: 10 μM ATP, 30 minutes pre-incubation; read-out: HTRF MERTK IC50
T3 construct: human MER (528-end); purchased Camnabio, Japan
T3 sequence (Q12866 528-999 limits assumed): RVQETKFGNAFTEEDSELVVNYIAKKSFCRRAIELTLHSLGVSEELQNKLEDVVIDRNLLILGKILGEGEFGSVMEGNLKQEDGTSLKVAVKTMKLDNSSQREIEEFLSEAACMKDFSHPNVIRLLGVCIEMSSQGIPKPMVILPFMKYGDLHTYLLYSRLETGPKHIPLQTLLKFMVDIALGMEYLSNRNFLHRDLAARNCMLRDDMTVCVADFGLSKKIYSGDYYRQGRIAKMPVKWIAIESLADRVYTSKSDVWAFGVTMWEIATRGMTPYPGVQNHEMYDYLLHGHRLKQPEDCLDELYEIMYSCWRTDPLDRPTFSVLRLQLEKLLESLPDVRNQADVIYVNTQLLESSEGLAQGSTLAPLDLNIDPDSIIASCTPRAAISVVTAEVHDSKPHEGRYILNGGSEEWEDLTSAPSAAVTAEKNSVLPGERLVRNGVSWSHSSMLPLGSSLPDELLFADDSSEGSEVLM
Description: as §1

Structure (SMILES)	IC50 (human TYRO3 (455-end)) [µM]	IC50 (human AXL (473-end)) [µM]	IC50 (human MER (528-end)) [µM]
Nc1ncc(-c2ccc(F)nc2)cc1C(=O)N[C@H]1COC[C@@H]1OCc1ccc(-c2ccc3c(c2)CCC3N2CCN(CCO)CC2)cc1 (stereo partly drawn) [Example 20, 6-amino-6′-fluoro-N-{(3S,4R)-4-[(4-{1-[4-(2-hydroxyethyl)piperazin-1-yl]-2,3-dihydro-1H-inden-5-yl}phenyl)methoxy]oxolan-3-yl}[3,3′-bipyridine]-5-carboxamide]	> 1	0.01 to 0.1	< 0.01
Nc1ncc(C(F)(F)F)cc1C(=O)N[C@H]1CCC[C@@H]1OCc1ccc(-c2ccc3c(ccn3C3CCN(CCO)CC3)c2)cc1 [Example 21, 2-amino-N-{(1S,2S)-2-[(4-{1-[1-(2-hydroxyethyl)piperidin-4-yl]-1H-indol-5-yl}phenyl)methoxy]cyclopentyl}-5-(trifluoromethyl)pyridine-3-carboxamide]	> 1	0.01 to 0.1	< 0.01
Nc1ncc(C(F)(F)F)cc1C(=O)N[C@H]1COC[C@@H]1OCc1ccc(-c2ccc3c(ccn3C3CCN(CCO)CC3)c2)cc1 [Example 24, 2-amino-N-{(3S,4R)-4-[(4-{1-[1-(2-hydroxyethyl)piperidin-4-yl]-1H-indol-5-yl}phenyl)methoxy]oxolan-3-yl}-5-(trifluoromethyl)pyridine-3-carboxamide]	> 1	0.1 to 1	0.01 to 0.1
Nc1ncc(-c2ccc(F)nc2)cc1C(=O)N[C@H]1COC[C@@H]1OCc1ccc(-c2ccc3c(ccn3C3CCN(CCO)CC3)c2)cc1 [Example 25, 6-amino-6′-fluoro-N-{(3S,4R)-4-[(4-{1-[1-(2-hydroxyethyl)piperidin-4-yl]-1H-indol-5-yl}phenyl)methoxy]oxolan-3-yl}[3,3′-bipyridine]-5-carboxamide]	> 1	0.01 to 0.1	< 0.01
Cn1cc(-c2cnc(N)c(C(=O)N[C@H]3CCC[C@@H]3OCc3ccc(-c4ccc5c(C6CCN(CCO)CC6)cn(C)c5c4)cc3)c2)cn1 [Example 26, 2-amino-N-{(1S,2S)-2-[(4-{3-[1-(2-hydroxyethyl)piperidin-4-yl]-1-methyl-1H-indol-6-yl}phenyl)methoxy]cyclopentyl}-5-(1-methyl-1H-pyrazol-4-yl)pyridine-3-carboxamide]	> 1	0.01 to 0.1	< 0.01
Cn1cc(-c2cnc(N)c(C(=O)N[C@H]3CCC[C@@H]3OCc3ccc(-c4cccc5cc[nH]c45)cc3)c2)cn1 [Example 29, 2-amino-N-[(1S,2S)-2-{[4-(1H-indol-7-yl)phenyl]methoxy}cyclopentyl]-5-(1-methyl-1H-pyrazol-4-yl)pyridine-3-carboxamide]	> 1	0.1 to 1	0.01 to 0.1

Now from value to compound:

IC50 (human TYRO3 (455-end)) [µM]	IC50 (human AXL (473-end)) [µM]	IC50 (human MER (528-end)) [µM]	Structure (SMILES)
> 1	0.01 to 0.1	0.01 to 0.1	CN1CC(C)(C)c2cc(-c3ccc(CO[C@H]4CCC[C@@H]4NC(=O)c4cc(-c5cnn(C)c5)cnc4N)cc3)ccc21 [Example 17, 2-amino-5-(1-methyl-1H-pyrazol-4-yl)-N-[(1S,2S)-2-{[4-(1,3,3-trimethyl-2,3-dihydro-1H-indol-5-yl)phenyl]methoxy}cyclopentyl]pyridine-3-carboxamide]
0.1 to 1	0.01 to 0.1	< 0.01	Cn1cc(-c2cnc(N)c(C(=O)N[C@H]3COC[C@@H]3OCc3ccc(-c4ccc5c(c4)CCC5N4CCN(CCO)CC4)cc3)c2)cn1 (stereo partly drawn) [Example 18, 2-amino-N-{(3S,4R)-4-[(4-{1-[4-(2-hydroxyethyl)piperazin-1-yl]-2,3-dihydro-1H-inden-5-yl}phenyl)methoxy]oxolan-3-yl}-5-(1-methyl-1H-pyrazol-4-yl)pyridine-3-carboxamide]
0.1 to 1	< 0.01	< 0.01	Nc1ncc(-c2ccc(F)nc2)cc1C(=O)N[C@H]1CCC[C@@H]1OCc1ccc(-c2ccc3c(c2)CCC3N2CCN(CCO)CC2)cc1 (stereo partly drawn) [Example 19, 6-amino-6′-fluoro-N-{(1S,2S)-2-[(4-{1-[4-(2-hydroxyethyl)piperazin-1-yl]-2,3-dihydro-1H-inden-5-yl}phenyl)methoxy]cyclopentyl}[3,3′-bipyridine]-5-carboxamide]
0.1 to 1	0.01 to 0.1	< 0.01	Nc1ncc(-c2ccc(F)nc2)cc1C(=O)N[C@H]1CCC[C@@H]1OCc1ccc(-c2ccc3c(ccn3C3CCN(CCO)CC3)c2)cc1 [Example 22, 6-amino-6′-fluoro-N-{(1S,2S)-2-[(4-{1-[1-(2-hydroxyethyl)piperidin-4-yl]-1H-indol-5-yl}phenyl)methoxy]cyclopentyl}[3,3′-bipyridine]-5-carboxamide]
< 0.01	< 0.01	< 0.01	Cn1cc(-c2cnc(N)c(C(=O)N[C@H]3CCC[C@@H]3OCc3ccc(-c4ccc5c(c4)C(C)(C)CN5C4CCN(CC(O)CO)CC4)cc3)c2)cn1 (stereo partly drawn) [Example 23, 2-amino-N-{(1S,2S)-2-[(4-{1-[1-(2,3-dihydroxypropyl)piperidin-4-yl]-3,3-dimethyl-2,3-dihydro-1H-indol-5-yl}phenyl)methoxy]cyclopentyl}-5-(1-methyl-1H-pyrazol-4-yl)pyridine-3-carboxamide]
0.1 to 1	0.01 to 0.1	< 0.01	Cn1cc(-c2cnc(N)c(C(=O)N[C@H]3CCC[C@@H]3OCc3ccc(-c4ccc5c(c4)C(C)(C)CN5C4CCN(CC(N)=O)CC4)cc3)c2)cn1 [Example 27, 2-amino-N-{(1S,2S)-2-[(4-{1-[1-(2-amino-2-oxoethyl)piperidin-4-yl]-3,3-dimethyl-2,3-dihydro-1H-indol-5-yl}phenyl)methoxy]cyclopentyl}-5-(1-methyl-1H-pyrazol-4-yl)pyridine-3-carboxamide]
0.01 to 0.1	0.01 to 0.1	0.01 to 0.1	Cn1cc(-c2cnc(N)c(C(=O)N[C@H]3CCC[C@@H]3OCc3ccc(-c4ccc5c(c4)C4(CC4)CN5C4CCN(CCO)CC4)cc3)c2)cn1 [Example 28, 2-amino-N-{(1S,2S)-2-[(4-{1′-[1-(2-hydroxyethyl)piperidin-4-yl]-1′,2′-dihydrospiro[cyclopropane-1,3′-indol]-5′-yl}phenyl)methoxy]cyclopentyl}-5-(1-methyl-1H-pyrazol-4-yl)pyridine-3-carboxamide]
0.01 to 0.1	< 0.01	< 0.01	Cn1ccc(-c2cnc(N)c(C(=O)N[C@H]3CCC[C@@H]3OCc3ccc(-c4ccc5c(c4)C(C)(C)CN5C4CCN(CCO)CC4)cc3)c2)cc1=O [Example 30, 6-amino-N-{(1S,2S)-2-[(4-{1-[1-(2-hydroxyethyl)piperidin-4-yl]-3,3-dimethyl-2,3-dihydro-1H-indol-5-yl}phenyl)methoxy]cyclopentyl}-1′-methyl-2′-oxo-1′,2′-dihydro[3,4′-bipyridine]-5-carboxamide]
0.01 to 0.1	< 0.01	< 0.01	CC1(C)CN(C2CCN(CCO)CC2)c2ccc(-c3ccc(CO[C@H]4CCC[C@@H]4NC(=O)c4cc(-c5ccc(F)nc5)cnc4N)cc3)cc21 [Example 31, 6-amino-6′-fluoro-N-{(1S,2S)-2-[(4-{1-[1-(2-hydroxyethyl)piperidin-4-yl]-3,3-dimethyl-2,3-dihydro-1H-indol-5-yl}phenyl)methoxy]cyclopentyl}[3,3′-bipyridine]-5-carboxamide]
